System: T1, Epimedium flavonoid-glycosidase
T1 construct: native secreted enzyme purified from culture supernatant (DEAE-cellulose DE-52)
Experiment: TLC scanning of substrate and products, Lineweaver-Burk plot
Assay type: biochemical, Aspergillus sp. y848
Conditions: 0.02 M acetate buffer pH 5.0, 40°C; icariin 12.5-50 mM

COc1ccc(-c2oc3c(CC=C(C)C)c(O[C@@H]4O[C@H](CO)[C@@H](O)[C@H](O)[C@H]4O)cc(O)c3c(=O)c2O[C@@H]2O[C@@H](C)[C@H](O)[C@@H](O)[C@H]2O)cc1 [icariin]
Km: 15.6 mM

From paper PMC9628809, “Icaritin Preparation from Icariin by a Special Epimedium Flavonoid-Glycosidase from Aspergillus sp.y848 Strain” (Journal of Microbiology and Biotechnology, 2022)
